# System: A549 cell line
# Experiment: RIF-Seq gene expression screen of compounds in A549 cells, 384 well plate
# Assay type: cell-based
# Procedure: To evaluate if RIF-Seq can be used to detect changes in gene expression due to action of compounds (drugs) and if gene expression signatures can be used to predict mechanism of action of the compound, the inventors performed screen of two compounds in various concentration (delivered to cells in DMSO) and controls (DMSO alone) in high throughput fashion on automated platforms. A549 cell line was seeded using automatic cell dispenser onto low volume imaging plate to concentration of 2 000 cell per well. After over-night incubation, drugs were manually added to cells according to schematics presented in the FIG. 16A, cells were fixated and RIF-Seq protocol was executed using automated robotic liquid handlers. […] Using Gene Set Enrichment Analysis (GESA) inventors compared the differential gene expression data of samples treated with 8.3 μM vorinostat and controls and which differently expressed genes are annotated to pre-defined gene sets contained in the Broad Institute “Hallmarks” list (FIG. 16D).
# Cells were cultured in T25 and T75 cell culturing flasks at 37° C. under 5% CO2 in RPMI1640 medium (HeLa, BjHTERT, MCF-7) or F12K medium (A549) with 10% complete fetal bovine serum (FBS), penicillin-streptomycin, and glutamine, up to 80% confluency. Before seeding cells into plates, cells were washed with PBS and dislodged using Tripsin-EDTA and resuspended in fresh medium to a concentration of 66 cells/μL. Manually (100 μL volume, 96 well plate) or by using automatic cell dispenser (30 μL volume, 384 well plate) cells were transferred into desired vessels and incubated over-night. For 96 well plates, the cell culture media were removed and plate was washed twice with 100 μl cold PBS in each well. Then 100 μl 3.7% PFA solution was added to each well and incubated at room temperature for 15 min. For 384 well plates, […] of freshly prepared 16% formaldehyde was added to 30 μl of cell media to obtain a final formaldehyde concentration of 3.7%. Fixation was performed for 20 minutes at room temperature. […]
compound,measurement,setting,value
O=C(CCCCCCC(=O)Nc1ccccc1)NO [vorinostat],Volcano plot of genes over- and under-expressed upon treatment,8.3 μM concentration vs DMSO controls,number of genes with significantly altered expression
same,"Gene Set Enrichment Analysis (GESA) of differential gene expression against Broad Institute ""Hallmarks"" gene sets",8.3 μM vorinostat vs DMSO controls,"down-regulation of the cell cycle and p53 pathways, E2F targets, cell cycle checkpoints and MYC targets"
same,PCA analyses of gene expression of compound-grouped samples vs DMSO controls,various concentrations,Gradient of differences
